Like-named read-outs stand apart in the source and are kept apart here. Where a SMILES comes first, the peptide text is derived from it. Bridges are numbered along the chain shown (N, C = ends). [ ]: non-standard residue; d: D form. Phe(3-Cl) = N[C@@H](Cc1cccc(Cl)c1)C(=O)O; hCys = N[C@@H](CCS)C(=O)O; Nle = CCCC[C@H](N)C(=O)O
Legend:
[1] = Stability in plasma (percentage of residual peptides); conditions: for Stability* (>24 h): plasma
Description: For the YAP inhibitory polypeptides modified in above (a) and (b), the IC50 values for TEAD binding and the stability in plasma were measured.

[2] = Cell penetration or infiltration of the polypeptides; type: cell-based
Text: In this example, the sequence was modified based on SEQ ID NO.: 1. Some preferred modification based on the tested results included: adding a disulfide linkage within the peptide, or adding a cell-penetrating element.

[3] = test system: hepatoma cell line BEL7404; type: cell-based
Description: (§1) The hepatoma cell line BEL7404 (purchased from The Chinese Academy of Sciences cell bank) was a cell line with high expression of YAP protein; HCCLM3 (purchased from The Chinese Academy of Sciences cell bank) was a cell line with low expression of YAP protein. The hepatoma cell lines (BEL7404 or HCCLM3) were inoculated into a 96-well plate at the concentration of 2000 cells/well, and incubated overnight in RPMI1640 containing 1% bovine serum at 37° C. The hepatoma cell lines were treated with polypeptides having different concentrations at 37° C. for 72 h.
(§2) Moreover, IC50 values of the cells in 1.1 were determined using CCK-8 kit.
(§3) The polypeptide represented by SEQ ID NO.:1 was further modified. The IC50 values of the polypeptides at a concentration of 1% in cell cultivating for 72 h were measured.

[4] = test system: hepatoma cell line HCCLM3; type: cell-based
Description: as §1, §2, §3

[5] = Table 2, percentage of residual peptides after >24 h
[6] = Table 8, at a concentration of 1% in cell cultivating for 72 h, unit inferred, read-out: IC50 BEL7404
[7] = Table 8, at a concentration of 1% in cell cultivating for 72 h, unit inferred, read-out: IC50 HCCLM3

For `CSCC[C@H](NC(=O)[C@@H]1CCCN1C(=O)[C@@H](N)C(C)C)C(=O)N[C@@H](CCCNC(=N)N)C(=O)N[C@@H](CC(C)C)C(=O)N[C@@H](CCCNC(=N)N)C(=O)N[C@@H](CCCCN)C(=O)N[C@@H](CC(C)C)C(=O)N1CCC[C@H]1C(=O)N[C@@H](CC(=O)O)C(=O)N[C@@H](CO)C(=O)N[C@@H](Cc1ccccc1)C(=O)N[C@@H](Cc1ccccc1)C(=O)N[C@@H](CCCCN)C(=O)N1CCC[C@H]1C(=O)N1CCC[C@H]1C(=O)N[C@@H](CCC(=O)O)C(=O)O` [SEQ ID NO.: 1], the “Stability* (>24 h)” value [1, 5] was 0%, the stability ([1]; in words) was “low stability” and the “Percentage of Cell penetration or infiltration (%)” value [2] was under 10%. The uptake by cells [2] was “difficult for effective uptake by cells”.

With `CSCC[C@H](NC(=O)[C@@H]1CCCN1C(=O)[C@@H](N)C(C)C)C(=O)N[C@H]1CCSSC[C@@H](C(=O)N[C@@H](CCCCN)C(=O)N2CCC[C@H]2C(=O)N2CCC[C@H]2C(=O)N[C@@H](CCC(=O)O)C(=O)O)NC(=O)[C@H](Cc2ccccc2)NC(=O)[C@H](CO)NC(=O)[C@H](CC(=O)O)NC(=O)[C@@H]2CCCN2C(=O)[C@H](CC(C)C)NC(=O)[C@H](CCCCN)NC(=O)[C@H](CCCNC(=N)N)NC(=O)[C@H](CC(C)C)NC1=O` [Peptide 2] the “Stability* (>24 h)” value [1, 5] was 13%, the “Stability* (>24 h)” value ([1]; Table 3, >24 h) was 7% and the “Percentage of Cell penetration or infiltration (%)” value ([2]; Table 2, penetration of the peptide with RRMKWKK taken as 100%) was 8%.

For `CCCC[C@@H]1NC(=O)[C@H](CCCCN)NC(=O)[C@H](CCCCN)NC(=O)[C@H](CC(C)C)NC(=O)[C@H](Cc2cccc(Cl)c2)NC(=O)[C@@H](NC(=O)[C@@H]2CCCN2C(=O)[C@@H](N)C(C)C)CCSSC[C@@H](C(=O)N[C@@H](Cc2ccccc2)C(=O)N[C@@H](CCCCN)C(=O)N2CCC[C@H]2C(=O)N2CCC[C@H]2C(=O)N[C@@H](CCCNC(=N)N)C(=O)N[C@@H](CCCNC(=N)N)C(=O)N[C@@H](CCSC)C(=O)N[C@@H](CCCCN)C(=O)N[C@@H](Cc2c[nH]c3ccccc23)C(=O)N[C@@H](CCCCN)C(=O)N[C@@H](CCCCN)C(=O)O)NC(=O)[C@H](CO)NC(=O)[C@H](C)NC(=O)[C@@H]2CCCN2C1=O` [compound 31] (H-VP[hCys][Phe(3-Cl)]LKK[Nle]PASCFKPPRRMKWKK-OH; disulfide 3-12), the IC50 [3, 6] was 16.2 ± 1.9 µM and the IC50 [4, 7] was 107 ± 23.2 µM.

With `CCCC[C@@H]1NC(=O)[C@@H](NC(=O)[C@H](Cc2cccc(Cl)c2)NC(=O)[C@@H]2CCCN2C(=O)[C@H](C)N)CCSSC[C@@H](C(=O)N[C@@H](CCCCN)C(=O)N2CCC[C@H]2C(=O)N2CCC[C@H]2C(=O)N[C@@H](CCCNC(=N)N)C(=O)N[C@@H](CCCNC(=N)N)C(=O)N[C@@H](CCSC)C(=O)N[C@@H](CCCCN)C(=O)N[C@@H](Cc2c[nH]c3ccccc23)C(=O)N[C@@H](CCCCN)C(=O)N[C@@H](CCCCN)C(=O)O)NC(=O)[C@H](Cc2ccccc2)NC(=O)[C@H](CO)NC(=O)[C@H](CC(=O)O)NC(=O)[C@@H]2CCCN2C(=O)[C@H](CCCC)NC(=O)[C@H](CCCCN)NC(=O)[C@H](CCCCN)NC1=O` [compound 26] (H-AP[Phe(3-Cl)][hCys][Nle]KK[Nle]PDSFCKPPRRMKWKK-OH; disulfide 4-13) the IC50 [3, 6] was 62.7 ± 5.9 µM and the IC50 [4, 7] was over 1000 µM.

In the case of `CSCC[C@H](NC(=O)[C@H](CCC(=O)O)NC(=O)[C@H](Cc1c[nH]c2ccccc12)NC(=O)CNC(=O)[C@H](C)NC(=O)[C@@H]1CCCN1C(=O)[C@H](CCCCN)NC(=O)[C@H](CCCCN)NC(=O)[C@H](Cc1c[nH]c2ccccc12)NC(=O)[C@H](CCCCN)NC(=O)[C@H](CCSC)NC(=O)[C@H](CCCNC(=N)N)NC(=O)[C@@H](N)CCCNC(=N)N)C(=O)N[C@@H](C)C(=O)N[C@@H](CCCCN)C(=O)N[C@H](C(=O)N[C@@H](CO)C(=O)N[C@@H](CO)C(=O)NCC(=O)N[C@@H](CCC(N)=O)C(=O)N[C@@H](CCCNC(=N)N)C(=O)N[C@@H](Cc1ccc(O)cc1)C(=O)N[C@@H](Cc1ccccc1)C(=O)O)[C@@H](C)O` [SEQ ID NO.: 20], the IC50 ([3]; 72 h) is reported as 444 ± 46.5 µM and the IC50 ([4]; 72 h) is reported as over 1000 µM.

For `CSCC[C@H](NC(=O)[C@H](CCCNC(=N)N)NC(=O)[C@@H](N)CCCNC(=N)N)C(=O)N[C@@H](CCCCN)C(=O)N[C@@H](Cc1c[nH]c2ccccc12)C(=O)N[C@@H](CCCCN)C(=O)N[C@@H](CCCCN)C(=O)N1CCC[C@H]1C(=O)N[C@@H](CCC(N)=O)C(=O)NCC(=O)N[C@@H](CCC(N)=O)C(=O)NCC(=O)N1CCC[C@H]1C(=O)N1CCC[C@H]1C(=O)N[C@@H](CO)C(=O)NCC(=O)N1CCC[C@H]1C(=O)NCC(=O)N[C@@H](CCC(N)=O)C(=O)N1CCC[C@H]1C(=O)N[C@@H](C)C(=O)N1CCC[C@H]1C(=O)N[C@@H](C)C(=O)O` [SEQ ID NO.: 16], the IC50 ([3]; 72 h) was 242 ± 27.2 µM and the IC50 ([4]; 72 h) was over 1000 µM.

For `CCCC[C@@H]1NC(=O)[C@H](CCCCN)NC(=O)[C@H](CCCNC(=N)N)NC(=O)[C@H](CC(C)C)NC(=O)[C@@H](NC(=O)[C@H](Cc2cccc(Cl)c2)NC(=O)[C@@H]2CCCN2C(=O)[C@@H](N)C(C)C)CCSSC[C@@H](C(=O)N[C@@H](CCCCN)C(=O)N2CCC[C@H]2C(=O)N2CCC[C@H]2C(=O)N[C@@H](CCCNC(=N)N)C(=O)N[C@@H](CCCNC(=N)N)C(=O)N[C@@H](CCSC)C(=O)N[C@@H](CCCCN)C(=O)N[C@@H](Cc2c[nH]c3ccccc23)C(=O)N[C@@H](CCCCN)C(=O)N[C@@H](CCCCN)C(=O)O)NC(=O)[C@H](Cc2ccccc2)NC(=O)[C@H](CO)NC(=O)[C@H](C)NC(=O)[C@@H]2CCCN2C1=O` [compound 21] (H-VP[Phe(3-Cl)][hCys]LRK[Nle]PASFCKPPRRMKWKK-OH; disulfide 4-13), the IC50 [3, 6] was 28.6 ± 2.9 µM and the IC50 [4, 7] was 196 ± 16.3 µM.

With `CCCC[C@@H]1NC(=O)[C@H](CCCCN)NC(=O)[C@H](CCCCN)NC(=O)[C@H](CC(C)C)NC(=O)[C@@H](NC(=O)[C@H](Cc2cccc(Cl)c2)NC(=O)[C@@H]2CCCN2C(=O)[C@@H](N)C(C)C)CCSSC[C@@H](C(=O)N[C@@H](CCCCN)C(=O)N2CCC[C@H]2C(=O)N2CCC[C@H]2C(=O)N[C@@H](CCCNC(=N)N)C(=O)N[C@@H](CCCNC(=N)N)C(=O)N[C@@H](CCSC)C(=O)N[C@@H](CCCCN)C(=O)N[C@@H](Cc2c[nH]c3ccccc23)C(=O)N[C@@H](CCCCN)C(=O)N[C@@H](CCCCN)C(=O)O)NC(=O)[C@H](Cc2ccccc2)NC(=O)[C@H](CO)NC(=O)[C@H](CCC(=O)O)NC(=O)[C@@H]2CCCN2C1=O` [compound 29] (H-VP[Phe(3-Cl)][hCys]LKK[Nle]PESFCKPPRRMKWKK-OH; disulfide 4-13) the IC50 [3, 6] was 65.6 ± 8.9 µM and the IC50 [4, 7] was 254 ± 12.3 µM.
